In one test the test system is Unfractionated heparin. In words: aPTT clotting assay, UFH 0.4 U/mL in plasma (Example 10). The format is biochemical. The following applies: unfractionated heparin 0.4 U/mL in plasma; aPTT clotting. On the procedure:
aPTT clotting Assay: Unfractionated heparin was mixed with plasma at a final concentration of 0.4 U/mL (or concentration which increases aPTT time to between 120 and 300 seconds). […] The ACL Elite Hemostasis analyzer (Beckman Coulter™) was used to add aPTT reagent (HemosIL SynthASil) to supplemented plasma. Clotting was initiated by addition of CaCl2 and time to clot was recorded.

In the next test the test system is enoxaparin. Nature of the test: FXa amidolytic assay (Example 10), enoxaparin. To be noted: read-out: Enox FXa EC50; enoxaparin 0.1 ug/ml; human antithrombin, bovine Factor Xa.
The next test concerns tinzaparin. Nature of the test: FXa amidolytic assay (Example 10), tinzaparin. To be noted: read-out: Tinzap FXa EC50; tinzaparin 0.1 ug/ml; human antithrombin, bovine Factor Xa.
The test system of another test is fondaparinux. Nature of the test: FXa amidolytic assay (Example 10), fondaparinux. The following applies: read-out: Fondap FXa EC50; fondaparinux 0.02 μg/mL; human antithrombin, bovine Factor Xa.

pEC50: −log10 of the molar value.

Experimental for enoxaparin: (§1) Two μl of test agent are added (range between 0.01 and 23 ug/ml) and incubated for 5 minutes at 23° C. Bovine Factor Xa was added to a final concentration of 0.636 nkat/mL and incubated for a further 10 minutes at 23° C.
Experimental for fondaparinux: as §1
Experimental for tinzaparin: as §1

Turning to `COc1ccc(NC(=O)[C@@H](CCCNC(=N)N)NC(=O)c2cc(NC(=O)[C@@H](CCCNC(=N)N)NC(=O)c3cc(NC(=O)[C@@H](CCCNC(=N)N)NC(=O)c4cc(NC(=O)[C@H](N)CCCNC(=N)N)ccc4OC)ccc3OC)ccc2OC)cc1C(=O)NCCC(=O)O` [Compound 279], the pEC50 with Unfractionated heparin is 5.71; with enoxaparin, 6.81; in the test with tinzaparin it was 6.87; in the test on fondaparinux it was 6.11.

Regarding `CSc1ccc(NC(=O)[C@H](CCCNC(=N)N)NC(=O)c2cc(NC(=O)[C@H](CCCNC(=N)N)NC(=O)c3cc(NC(=O)[C@H](CCCNC(=N)N)NC(=O)c4cc(NC(=O)[C@@H](N)CCCNC(=N)N)ccc4SC)ccc3SC)ccc2SC)cc1C(N)=O` [Compound 235], the pEC50 with Unfractionated heparin was < 5.00; in the test on enoxaparin, 6.30; in the test on tinzaparin, 6.36; in the test on fondaparinux, 4.97.

As to `COc1ccc(NC(=O)[C@H](CCCCN)NC(=O)c2cc(NC(=O)[C@H](CCCCN)NC(=O)c3cc(NC(=O)[C@H](CCCCN)NC(=O)c4cc(NC(C)=O)ccc4OC)ccc3OC)ccc2OC)cc1C(N)=O` [Compound 328], the pEC50 is 5.73 with Unfractionated heparin, 6.35 with enoxaparin, 6.59 with tinzaparin and 5.63 with fondaparinux.

Turning to `COc1ccc(NC(=O)[C@H](CCCCN)NC(=O)c2cc(NC(=O)[C@H](CCCCN)NC(=O)c3cc(NC(=O)[C@H](CCCCN)NC(=O)c4cc(NC(=O)[C@@H](N)CCCCN)ccc4OC)ccc3OC)ccc2OC)cc1C(=O)N[C@@H](C)C(=O)O` [Compound 262], the pEC50 with Unfractionated heparin is 5.90; with enoxaparin, 6.46; with tinzaparin it was 6.67; with fondaparinux, 5.25.

Take `COc1ccc(NC(=O)[C@H](CCCCN)NC(=O)c2cc(NC(=O)[C@H](CCCCN)NC(=O)c3cc(NC(=O)[C@H](CCCCN)NC(=O)c4cc(NC(=O)[C@H](CCCCN)NC(=O)CCC(=O)O)ccc4OC)ccc3OC)ccc2OC)cc1C(N)=O` [Compound 339]: the pEC50 with Unfractionated heparin is 6.04; with enoxaparin it was 6.57; with tinzaparin, 6.63; in the test on fondaparinux, 5.72.

For the molecule `COc1cc(OC)c(C(=O)N[C@H]2CC[C@@H](NC(=O)c3cc(C(=O)N4CCC(N)CC4)c(OC)cc3OC)CC2)cc1C(=O)N[C@H]1CC[C@@H](NC(=O)c2cc(C(=O)N3CCC(N)CC3)c(OC)cc2OC)CC1` [Compound 419], the pEC50 was < 5.00 in the test with Unfractionated heparin, < 5.30 in the test with enoxaparin, < 5.30 in the test with tinzaparin and < 5.00 with fondaparinux.

For `COc1ccc(NC(=O)[C@H](CCCNC(=N)N)NC(=O)c2cc(NC(=O)[C@H](CCCNC(=N)N)NC(=O)c3cc(NC(=O)[C@H](CCCNC(=N)N)NC(=O)c4cc(NC(C)=O)ccc4OC)ccc3OC)ccc2OC)cc1C(=O)NCC(=O)O` [Compound 299], the pEC50 was 5.54 in the test on Unfractionated heparin, 6.61 in the test with enoxaparin, 6.62 with tinzaparin and 6.58 in the test on fondaparinux.

Regarding `COc1ccc(NC(=O)[C@H](CCCCN)NC(=O)c2cc(NC(=O)[C@H](CCCCN)NC(=O)c3cc(NC(=O)[C@H](CCCCN)NC(=O)c4cc(NC(=O)[C@@H](N)CCCCN)ccc4OC)ccc3OC)ccc2OC)cc1C(=O)NCCCCCC(=O)O` [Compound 274], the negative logarithm of the EC50 (pEC50) in the test with Unfractionated heparin is 5.79; in the test on enoxaparin, 6.25; with tinzaparin, 6.52; in the test with fondaparinux, 5.15.

Turning to `COc1ccc(NC(=O)[C@H](CCCCN)NC(=O)c2cc(NC(=O)[C@H](CCCCN)NC(=O)c3cc(NC(=O)[C@H](CCCCN)NC(=O)c4cnc(N)s4)ccc3OC)ccc2OC)cc1C(N)=O` [Compound 247], the negative-log EC50 (pEC50) in the test on Unfractionated heparin was 5.59; in the test with enoxaparin, 5.50; in the test on tinzaparin, 5.87; in the test on fondaparinux it was < 5.00.

For `COc1cc(OC)c(C(=O)Nc2ccc(NC(=O)c3cc(C(=O)Nc4ccc(N=C(N(C)C)N(C)C)cc4)c(OC)cc3OC)cc2)cc1C(=O)NCCN` [Compound 422], the pEC50 with Unfractionated heparin is 5.90; with enoxaparin it was 6.22; in the test on tinzaparin, 6.37; in the test with fondaparinux it was 5.72.

`COc1ccc(NC(=O)[C@H](CCCCN)NC(=O)c2cc(NC(=O)[C@H](CCCCN)NC(=O)c3cc(NC(=O)[C@H](CCCNC(N)=O)NC(=O)c4cc(NC(=O)[C@@H](N)CCCCN)ccc4OC)ccc3OC)ccc2OC)cc1C(N)=O` [Compound 257]: the pEC50 is 5.88 in the test on Unfractionated heparin, 6.69 with enoxaparin, 6.89 in the test on tinzaparin and 5.84 in the test on fondaparinux.

Consider `COc1ccc(NC(=O)[C@H](CCCCN)NC(=O)c2cc(NC(=O)[C@H](CCC(=O)O)NC(=O)c3cc(NC(=O)[C@H](CCCCN)NC(=O)c4cc(NC(=O)[C@@H](N)CCCCN)ccc4OC)ccc3OC)ccc2OC)cc1C(N)=O` [Compound 316], for which the pEC50 is 5.69 in the test with Unfractionated heparin, 6.48 in the test with enoxaparin, 6.65 with tinzaparin and 5.76 in the test on fondaparinux.

For `CNc1cccc(C(=O)N[C@@H](CCCCN)C(=O)Nc2ccc(OC)c(C(=O)N[C@@H](CCCCN)C(=O)Nc3ccc(OC)c(C(=O)N[C@@H](CCCCN)C(=O)Nc4ccc(OC)c(C(N)=O)c4)c3)c2)c1` [Compound 243], the pEC50 is 5.54 in the test on Unfractionated heparin, 5.94 with enoxaparin, 6.12 with tinzaparin and 5.23 in the test with fondaparinux.

For the molecule `COc1ccc(NC(=O)[C@H](CCCNC(=N)N)NC(=O)c2cc(NC(=O)[C@H](CCCNC(=N)N)NC(=O)c3cc(NC(=O)[C@H](CCCNC(=N)N)NC(=O)c4cc(NC(C)=O)ccc4OC)ccc3OC)ccc2OC)cc1C(=O)NCCC(=O)O` [Compound 300], the negative logarithm of the EC50 (pEC50) with Unfractionated heparin is 5.46; in the test with enoxaparin it was 6.57; with tinzaparin, 6.51; in the test on fondaparinux it was 6.34.

In the case of `COc1cc(OC)c(C(=O)N[C@H]2CC[C@@H](NC(=O)c3cc(C(N)=O)c(OCCCCCN)cc3OCCCCCN)CC2)cc1C(=O)N[C@H]1CC[C@@H](N=C(N(C)C)N(C)C)CC1` [Compound 413], the pEC50 in the test on Unfractionated heparin was 5.15; in the test with enoxaparin, 5.33; in the test on tinzaparin it was 5.56; in the test on fondaparinux, 4.83.

`COc1cc(OC)c(C(=O)N[C@H]2CC[C@H](NC(=O)c3cc(C(=O)NCCN(C)C)c(OCCCCCNC(=N)N)cc3OCCCCCNC(=N)N)CC2)cc1C(=O)N[C@H]1CC[C@@H](NC(=O)c2cc(C(=O)NCCN(C)C)c(OCCCCCNC(=N)N)cc2OCCCCCNC(=N)N)CC1` [Compound 222]: the pEC50 in the test with Unfractionated heparin is 5.59; in the test on enoxaparin, 6.76; with tinzaparin, 6.94; with fondaparinux, 6.02.

`COc1ccc(NC(=O)[C@H](N)CCCNC(=N)N)cc1C(=O)N[C@H](CCCNC(=N)N)C(=O)Nc1ccc(OC)c(C(=O)N[C@H](CCCNC(=N)N)C(=O)Nc2ccc(OC)c(C(=O)N[C@H](CCCNC(=N)N)C(=O)Nc3ccc(OCC(=O)O)c(C(N)=O)c3)c2)c1` [Compound 280]: the pEC50 is 5.79 in the test on Unfractionated heparin, 6.88 in the test on enoxaparin, 6.92 in the test on tinzaparin and 6.24 in the test on fondaparinux.

As for `COc1cc(OC)c(C(=O)N2CCC(NC(=O)c3cc(C(=O)NCCN)c(OC)cc3OC)CC2)cc1C(=O)O` [Compound 394], the pEC50 in the test on Unfractionated heparin is < 5.00; with enoxaparin, < 5.30; in the test with tinzaparin, < 5.30; in the test on fondaparinux, < 5.00.

Regarding `COc1ccc(NC(=O)[C@@H](CCCNC(N)=O)NC(=O)c2cc(NC(=O)[C@@H](CCCNC(=N)N)NC(=O)c3cc(NC(=O)[C@@H](CCCNC(=N)N)NC(=O)c4cc(NC(=O)[C@H](N)CCCNC(=N)N)ccc4OC)ccc3OC)ccc2OC)cc1C(N)=O` [Compound 255], the pEC50 with Unfractionated heparin was 5.76; with enoxaparin it was 6.94; in the test with tinzaparin, 6.92; with fondaparinux it was 6.33.

Consider `COc1ccc(NC(=O)[C@@H](CCCNC(=N)N)NC(=O)c2cc(NC(=O)[C@@H](CCCNC(N)=O)NC(=O)c3cc(NC(=O)[C@@H](CCCNC(=N)N)NC(=O)c4cc(NC(=O)[C@H](N)CCCNC(=N)N)ccc4OC)ccc3OC)ccc2OC)cc1C(N)=O` [Compound 254], for which the negative logarithm of the EC50 (pEC50) in the test on Unfractionated heparin is 5.79; in the test on enoxaparin, 7.03; with tinzaparin, 7.01; in the test with fondaparinux it was 6.35.

For `COc1cc(OC)c(C(=O)NC2CCN(C(=O)c3cc(C(=O)N4CCC(NC(=O)c5cc(C(=O)NCCN)c(OC)cc5OC)CC4)c(OC)cc3OC)CC2)cc1C(=O)NCCN` [Compound 393], the pEC50 in the test with Unfractionated heparin was < 5.00; in the test on enoxaparin it was < 5.30; in the test with tinzaparin, < 5.30; in the test with fondaparinux, < 5.00.

As to `COc1ccc(NC(=O)[C@H](CCCCN)NC(=O)c2cc(NC(=O)[C@H](CCCCN)NC(=O)c3cc(NC(=O)[C@H](CCCCN)NC(=O)c4cc(N)cc(C(F)(F)F)c4)ccc3OC)ccc2OC)cc1C(N)=O` [Compound 240], the pEC50 in the test with Unfractionated heparin was < 5.00; in the test with enoxaparin, 6.20; in the test with tinzaparin, 6.40; in the test with fondaparinux it was 5.68.

Consider `COc1cc(OC)c(C(=O)N[C@H]2CC[C@@H](NC(=O)c3cc(C(=O)N4CCC(CN)CC4)c(OCCCCCN)cc3OCCCCCN)CC2)cc1C(=O)N[C@H]1CC[C@@H](N=C(N(C)C)N(C)C)CC1` [Compound 424], for which the pEC50 in the test with Unfractionated heparin was < 5.00; with enoxaparin, < 5.30; with tinzaparin, < 5.30; with fondaparinux it was < 5.00.

`COc1cc(OC)c(C(=O)N[C@H]2CC[C@H](NC(=O)c3cncc(C(=O)O)c3)CC2)cc1C(=O)NCCN` [Compound 401]: the pEC50 is < 5.00 in the test on Unfractionated heparin, < 5.30 in the test with enoxaparin, < 5.30 with tinzaparin and < 5.00 in the test on fondaparinux.

As for `COc1cc(OC)c(C(=O)N[C@H]2CC[C@H](NC(=O)c3cccc(C(=O)O)c3)CC2)cc1C(=O)NCCN` [Compound 399], the negative logarithm of the EC50 (pEC50) with Unfractionated heparin is < 5.00; with enoxaparin, < 5.30; in the test on tinzaparin it was < 5.30; with fondaparinux, < 5.00.

These data come from patent US20110178104A1, “Anti-Heparin Compounds” (POLYMEDIX INC., priority 2010, published 2011).
